The values that follow come from patent US10562864B2, “Chemical modulators of immune checkpoints and therapeutic use” (Duke University, priority 2015, dated 2020).

As usually defined, the EC50 is the concentration that produces a half-maximal response.

“Also recorded” adds a separate entry of the source.

For test [1], the target named is T1, PD1-GFP (Homo sapiens, UniProt Q15116).
T1 construct: expressed in transfected cells; host or cells: U2OS
The test is described as follows: Internalization assay (PD1-GFP), confocal imaging of PD1-GFP stable U2OS cells. The arrangement: Internalized PD1-GFP punctate; 6 hr (10 μM): key to the marks not given beside the values. Type of test: cell-based. The following applies: 37° C. On the procedure: U2OS cells were transfected with PD1-GFP and stable receptor-expressing cells were selected using 0.5 mg/ml Geneticin in the culture medium. […] The plates were incubated overnight at 37° C. in 5% CO2. The following day, chemical compounds (10 mM in DMSO) were diluted 1:200 in culture medium, 6.25 μL of which was then added to each well of cells to produce a 1:1000 dilution overall and final compound concentration of 10 μM per well. The cells were incubated with compound for 6 h at 37° C. prior to fixation in PBS containing 0.5% paraformaldehyde for 30 min at room temperature. The wells were then washed with PBS three times and stored at 4° C. The cells were imaged using a Zeiss LSM-510 confocal microscope.

For test [2], the system named is PD-1. Description: Western blot analysis of PD-1 protein level in 4T1 cells stably expressing PD-1. Type of test: cell-based, murine. The arrangement: key to Decrease in PD1 protein level by western blot at 24 h at 5 μM: † 3+ Scale with + least and +++ most; † 3+ Scale with + least and +++ most; † 3+ Scale with + least and +++ most; key to Decrease in PD1 protein level by western blot at 4 days at 3 μM: ‡ 3+ Scale with + least and +++ most; ‡ 3+ Scale with + least and +++ most; ‡ 3+ Scale with + least and +++ most. The settings on record: for Decrease in PD1 protein level by western blot at 4 days at 3 μM / Decrease in PD1 protein level by western blot at 24 h at 5 μM / PD-1 protein levels by western blot after 4 days: 4T1-PD1 cells; for PD-1 protein levels by western blot at 24 hours: 4T1 cells stably expressing PD-1, FIG. 9, 10, 12; for PD-1 protein levels by western blot after 4 days: FIG. 13. The protocol: Murine breast cancer cells were grown in DMEM medium supplemented with 10% FBS and penicillin and streptomycin antibiotics at 37° C. in 5% CO2.
4T1 Murine breast cancer cells stably expressing PD1 were seeded in 12-well plates (30 k cells/well) and incubated overnight. […] Cells were lysed with SDS sample buffer and lysates were subjected to western blot analysis
4T1-PD1 cells were seeded in 12-well plates (100 k cells/well) overnight. On the next day, compounds were added and the cells incubated for 4 days. The cells were then lysed in SDS sample buffer and lysates were subjected to western blot analysis

The test system of test [3] is phospho-Erk1/2. Description: Western blot analysis of phospho-Erk1/2 levels in 4T1-PD1 cells. Type of test: cell-based, murine. The following applies: 24 hours, FIG. 11, 12. On the procedure:
4T1-PD1 cells (30K cells/per well) were seeded in 12-well plates overnight. On the following day, the compounds were added and the cells were incubated for 24 hours. The cells were then lysed in SDS sample buffer and analyzed by western blots.
4T1-PD1 cells (30K cells/per well) were seeded in 12-well plates overnight. On the following day, the compounds were added and the cells were incubated for 24 hours. The cells were then lysed in SDS sample buffer and analyzed by western blot.
4T1 Murine breast cancer cells stably expressing PD1 were seeded in 12-well plates (30 k cells/well) and incubated overnight. On the next day, compounds were added to produce the final concentration desired and the cells were incubated for […]. Cells were lysed with SDS sample buffer and lysates were subjected to western blot analysis

Test [4] deals with T1, PD1-GFP. The test is described as follows: Internalization assay (PD1-GFP), confocal imaging of PD1-GFP stable U2OS cells. Type of test: cell-based. The settings on record: 0.25 μM to 10 μM, 6 h, see FIG. 6/7.
For test [5], the target named is T2, CTLA4-GFP (Homo sapiens, UniProt P16410).
T2 construct: expressed in transfected cells; host or cells: U2OS
T2 sequence (P16410 36-223): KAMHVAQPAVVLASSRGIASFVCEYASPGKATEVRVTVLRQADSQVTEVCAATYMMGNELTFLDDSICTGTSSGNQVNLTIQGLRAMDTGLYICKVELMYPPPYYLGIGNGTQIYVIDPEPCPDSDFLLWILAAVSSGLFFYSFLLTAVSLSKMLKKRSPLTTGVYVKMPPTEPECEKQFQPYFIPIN
Description: CTLA4-GFP internalization, confocal imaging of CTLA4-GFP stable U2OS cells. Type of test: cell-based. The arrangement: key to Internalized CTLA4-GFP punctate; 6 hr (10 μM): **4+ Scale with + least and ++++ most; **4+ Scale with + least and ++++ most; **4+ Scale with + least and ++++ most; **4+ Scale with + least and ++++ most.

The target in test [6] is T3, PDL1-GFP (Homo sapiens, UniProt Q9NZQ7).
T3 construct: expressed in transfected cells; host or cells: U2OS
T3 sequence (Q9NZQ7 19-290): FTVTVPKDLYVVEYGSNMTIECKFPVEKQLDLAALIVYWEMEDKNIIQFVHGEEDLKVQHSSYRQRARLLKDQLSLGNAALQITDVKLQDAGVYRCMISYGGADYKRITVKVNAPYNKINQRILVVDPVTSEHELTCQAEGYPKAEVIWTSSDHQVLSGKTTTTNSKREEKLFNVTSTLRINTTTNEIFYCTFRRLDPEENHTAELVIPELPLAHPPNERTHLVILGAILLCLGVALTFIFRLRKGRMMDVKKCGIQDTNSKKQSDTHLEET
Description: Confocal imaging of PDL1-GFP stable U2OS cells. The test is classed as cell-based. The settings on record: 10 μM, 6 h, 37° C., FIG. 2.

T1 sequence (Q15116 25-288): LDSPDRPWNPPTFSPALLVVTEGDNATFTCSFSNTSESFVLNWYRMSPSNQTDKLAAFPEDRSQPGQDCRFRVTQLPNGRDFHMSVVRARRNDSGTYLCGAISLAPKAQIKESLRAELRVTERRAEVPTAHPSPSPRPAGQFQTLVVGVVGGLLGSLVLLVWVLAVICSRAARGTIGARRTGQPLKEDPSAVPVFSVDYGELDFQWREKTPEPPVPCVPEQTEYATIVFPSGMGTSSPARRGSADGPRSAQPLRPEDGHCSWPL

For the molecule `O=[N+]([O-])c1ccc(-c2nnc(-c3cc(Cl)ccc3O)[nH]2)cc1` [Compound 1, 4-Chloro-2-(5-(4-nitrophenyl)-4H-1,2,4-triazol-3-yl)phenol], in test [1], the “Internalized PD1-GFP punctate; 6 hr (10 μM)” value (shortened to “Internalized PD1-GFP punctate”) is reported as “++++”.

Regarding `O=[N+]([O-])c1ccc2[nH]c(-c3cc(Cl)ccc3O)nc2c1` [Compound 2, 4-Chloro-2-(5-nitro-1H-benzo[d]imidazol-2-yl)phenol], the “Internalized PD1-GFP punctate” value in test [1] is on record as “++++”. Besides, in test [2], the “Decrease in PD1 protein level by western blot at 4 days at 3 μM” value (from here on “Decrease in PD1 protein level … at 3 μM”) is given as “+++”; the “Decrease in PD1 protein level by western blot at 24 h at 5 μM” value (from here on “Decrease in PD1 protein level … at 5 μM”) is listed as “++”; the “PD-1 protein levels by western blot at 24 hours” value is “lower PD-1 and phopho-Erk1/2 protein levels”; the “PD-1 protein levels by western blot after 4 days” value was “lower PD-1 protein levels”. Besides, the “phospho-Erk1/2 levels by western blot” value in test [3] was “lower PD-1 and phopho-Erk1/2 protein levels”.

Regarding `O=[N+]([O-])c1ccc2[nH]c(-c3cc(F)ccc3O)nc2c1` [Compound 3, 4-fluoro-2-(5-nitro-1H-benzo[d]imidazol-2-yl)phenol], in test [2], the “Decrease in PD1 protein level … at 3 μM” value is reported as “+++”; the “Decrease in PD1 protein level … at 5 μM” value is on record as “++”; the “PD-1 protein levels by western blot at 24 hours” value is “lower PD-1 and phopho-Erk1/2 protein levels”; the “PD-1 protein levels by western blot after 4 days” value is “lower PD-1 protein levels”. In addition, the “phospho-Erk1/2 levels by western blot” value in test [3] was “lower PD-1 and phopho-Erk1/2 protein levels”.

For the molecule `O=S(=O)(Nc1ccc(C(F)(F)F)cc1Cl)c1cc(Cl)ccc1O` [Compound 4, 5-Chloro-N-(2-chloro-4-(trifluoromethyl)phenyl)-2-hydroxybenzenesulfonamide], the “Internalized PD1-GFP punctate” value in test [1] is given as “++”.

Consider `O=C(Nc1ccc(C(F)(F)F)cc1Cl)c1cc(Cl)ccc1O` [Compound 5, 5-chloro-N-(2-chloro-4-(trifluoromethyl)phenyl)-2-hydroxybenzamide], for which the “Internalized PD1-GFP punctate” value in test [1] was “++++”.

Regarding `O=C(Nc1cc(Cl)cc(Cl)c1)c1cc(Cl)ccc1O` [Compound 6, 5-chloro-N-(3,5-dichlorophenyl)-2-hydroxybenzamide], the “Internalized PD1-GFP punctate” value in test [1] is reported as “++++”.

In the case of `CCCCCCCC(=O)Oc1ccc(Cl)cc1C(=O)Nc1ccc([N+](=O)[O-])cc1Cl` [Compound 7, 4-Chloro-2-((2-chloro-4-nitrophenyl)carbamoyl)phenyl octanoate], in test [1], the “Internalized PD1-GFP punctate” value is on record as “++++”. Moreover, in test [2], the “Decrease in PD1 protein level … at 5 μM” value is recorded as “++” and the “PD-1 protein levels by western blot at 24 hours” value is on record as “lower PD-1 protein levels”. The molecule further returned an EC50 in test [4] of 3 µM.

On to `Cc1ccc(S(=O)(=O)Nc2ccc(Br)cc2C(=O)Nc2ccc(C(F)(F)F)cc2)cc1` [Compound 8, 5-Bromo-2-((4-methylphenyl)sulfonamido)-N-(4-(trifluoromethyl)phenyl)benzamide], for which, in test [1], the “Internalized PD1-GFP punctate” value is reported as “++++”.

For `O=C(Nc1ccc(C(F)(F)F)cc1)c1cc(Cl)cc2[nH]c(C(F)(F)F)nc12` [Compound 9, 6-Chloro-2-(trifluoromethyl)-N-(4-(trifluoromethyl)phenyl)-1H-benzo[d]imidazole-4-carboxamide], the “Internalized PD1-GFP punctate” value in test [1] is reported as “++++”.

As for `O=C(Nc1ccc([N+](=O)[O-])cc1Cl)c1cc(Cl)ccc1O` [Compound 10, niclosamide], in test [1] (10 μM, 6 h, FIG. 1), the “PD1-GFP internalization in confocal images” value is listed as “internalized PD1-GFP vesicles”. In addition, the “Internalized PD1-GFP punctate” value in test [1] is given as “++++”. The “CTLA4-GFP vesicles in confocal images” value in test [5] (10 μM, 6 h, 37° C., FIG. 3) was “aggregated CTLA4-GFP vesicles”. In test [5] (6 hr), the “Internalized CTLA4-GFP punctate; 6 hr (10 μM)” value was “+++”. In test [2], the “Decrease in PD1 protein level … at 5 μM” value is reported as “+++” and the “PD-1 protein levels by western blot at 24 hours” value is “decreases PD-1 protein levels; also recorded: lower PD-1 protein levels”. Also, the “PD-1 protein levels by western blot at 6 hours” value in test [2] (6 hrs, 4T1 cells stably expressing PD-1, FIG. 8) was “decreases PD-1 protein levels”. For the same molecule, in test [3], the “phospho-Erk1/2 levels by western blot” value is listed as “lower phospho-Erk1/2 levels”. Besides, the “PDL1-GFP vesicles in confocal images” value in test [6] is recorded as “aggregated PDL1-GFP vesicles”. In addition, the response in test [4] was half-maximal at 3 µM (EC50).

In the case of `O=C(Nc1ncc([N+](=O)[O-])s1)c1ccccc1O` [Compound 11], the “Internalized PD1-GFP punctate” value in test [1] is “++”.

Turning to `CC(=O)Oc1ccccc1C(=O)Nc1ncc([N+](=O)[O-])s1` [Compound 12, nitazoxanide], the “Internalized PD1-GFP punctate” value in test [1] is listed as “++”. In test [2], the “Decrease in PD1 protein level … at 5 μM” value is “+”; the “PD-1 protein levels by western blot at 24 hours” value was “lower PD-1 and phopho-Erk1/2 protein levels”. The “phospho-Erk1/2 levels by western blot” value in test [3] is “lower PD-1 and phopho-Erk1/2 protein levels”.

With `CCCCc1oc2ccccc2c1C(=O)c1cc(I)c(OCCN(CC)CC)c(I)c1` [Compound 13], the “Internalized PD1-GFP punctate” value in test [1] is on record as “+++”. The “Decrease in PD1 protein level … at 3 μM” value in test [2] was “++”.

As for `CC[C@@H](C(=O)[C@@H](C)[C@@H](O)[C@H](C)CCc1ccc(C)c(O)c1C(=O)O)[C@H]1O[C@](CC)([C@H]2CC[C@](O)(CC)[C@H](C)O2)C[C@@H]1C` [Compound 14, lasalocid], the “Internalized PD1-GFP punctate” value in test [1] is listed as “++++”. Also, in test [2], the “Decrease in PD1 protein level … at 5 μM” value is on record as “++” and the “PD-1 protein levels by western blot at 24 hours” value is “lower PD-1 protein levels”. Also, the “phospho-Erk1/2 levels by western blot” value in test [3] is “lower phospho-Erk1/2 levels”.

Take `CC(NCCC(c1ccccc1)c1ccccc1)c1ccccc1` (centres unmarked) [Compound 15]: the “Internalized PD1-GFP punctate” value in test [1] is given as “++”.

For `CCN(CC)CCCC(C)Nc1c2ccc(Cl)cc2nc2ccc(OC)cc12` (centres unmarked) [Compound 16], in test [1], the “Internalized PD1-GFP punctate” value is “+++”.

For `COc1ccc2cc1Oc1ccc(cc1)C[C@H]1c3cc(c(OC)cc3CCN1C)Oc1c(OC)c(OC)cc3c1[C@H](C2)N(C)CC3` [Compound 17], in test [1], the “Internalized PD1-GFP punctate” value is “+++”. Also, the “Decrease in PD1 protein level … at 3 μM” value in test [2] was “++”.

Take `Cc1cc(/C=C/c2ccc3cc(N(C)C)ccc3[n+]2C)c(C)n1-c1ccccc1` [Compound 18]: the “Internalized PD1-GFP punctate” value in test [1] is recorded as “++++”. Also, in test [2], the “Decrease in PD1 protein level … at 3 μM” value is “+++”.

For the molecule `CCN(CC)CCCC(C)Nc1ccnc2cc(Cl)ccc12` (centres unmarked) [Compound 19], in test [1], the “Internalized PD1-GFP punctate” value was “+++”.

Consider `CCCCc1oc2ccccc2c1C(=O)c1cc(I)c(OCCN(CC)CC)c(I)c1` [amiodarone], for which the “PD-1 protein levels by western blot after 4 days” value in test [2] is “lower PD-1 protein levels”.
